Our source for the IC50, EC50 and AC50 values is ChEMBL document CHEMBL1201862, “PubChem BioAssay data set” (2004).

Active and inactive are the calls of the source.

Common to all, as to type: functional
The target in test [1] is T1, Coagulation factor XII (Homo sapiens, UniProt P00748).
T1 sequence (P00748 whole entry): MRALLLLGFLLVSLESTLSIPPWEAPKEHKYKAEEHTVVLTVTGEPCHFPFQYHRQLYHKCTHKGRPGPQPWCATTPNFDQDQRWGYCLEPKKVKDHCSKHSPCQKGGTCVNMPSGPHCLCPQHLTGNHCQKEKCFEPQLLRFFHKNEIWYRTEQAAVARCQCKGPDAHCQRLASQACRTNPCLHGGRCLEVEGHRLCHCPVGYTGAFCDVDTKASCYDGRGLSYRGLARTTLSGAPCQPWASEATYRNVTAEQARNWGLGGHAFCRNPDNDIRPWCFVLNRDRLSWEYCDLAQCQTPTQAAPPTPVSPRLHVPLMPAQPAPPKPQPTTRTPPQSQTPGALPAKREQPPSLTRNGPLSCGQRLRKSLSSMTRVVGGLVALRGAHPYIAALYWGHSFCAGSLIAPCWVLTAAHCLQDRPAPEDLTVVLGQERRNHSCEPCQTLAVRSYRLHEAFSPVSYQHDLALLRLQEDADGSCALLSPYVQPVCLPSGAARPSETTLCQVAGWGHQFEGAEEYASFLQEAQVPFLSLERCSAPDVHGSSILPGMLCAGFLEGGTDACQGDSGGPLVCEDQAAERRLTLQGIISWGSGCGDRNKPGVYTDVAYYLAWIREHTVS
The experiment in a line: activated coagulation factor XII inhibitor potency, concentration-effect curve, cell-free (AID 716).

In test [2] the target is T2, High affinity choline transporter 1 (Homo sapiens, UniProt Q9GZV3).
T2 sequence (Q9GZV3 whole entry): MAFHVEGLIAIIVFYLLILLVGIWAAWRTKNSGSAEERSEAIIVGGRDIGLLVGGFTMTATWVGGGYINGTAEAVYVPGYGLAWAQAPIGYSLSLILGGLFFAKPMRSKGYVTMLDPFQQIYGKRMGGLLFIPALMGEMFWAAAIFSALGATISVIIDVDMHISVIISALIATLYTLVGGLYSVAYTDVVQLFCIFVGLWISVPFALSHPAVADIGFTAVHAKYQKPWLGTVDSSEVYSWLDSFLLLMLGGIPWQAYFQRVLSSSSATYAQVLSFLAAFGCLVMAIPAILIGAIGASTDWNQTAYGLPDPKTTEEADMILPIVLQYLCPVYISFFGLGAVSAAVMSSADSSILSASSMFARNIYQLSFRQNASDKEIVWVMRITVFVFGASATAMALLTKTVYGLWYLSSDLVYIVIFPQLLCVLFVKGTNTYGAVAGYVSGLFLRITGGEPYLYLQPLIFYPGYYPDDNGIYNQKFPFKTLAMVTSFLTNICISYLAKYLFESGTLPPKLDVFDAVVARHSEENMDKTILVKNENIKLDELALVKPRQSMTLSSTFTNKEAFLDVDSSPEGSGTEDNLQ
Nature of the test: human choline transporter blockers, potency – cell-based, 5-point CRC, membrane potential dye, dose response (AID 504840).

Test [3] has as its target DNA dC->dU-editing enzyme APOBEC-3A (Homo sapiens, UniProt P31941). Nature of the test: Dose Response confirmation of small molecule APOBEC3A DNA Deaminase Inhibitors via a fluorescence-based single-stranded DNA deaminase assay. [Related pubchem assays (depositor defined):AID493011, AID493024].
In test [4] the target is DNA dC->dU-editing enzyme APOBEC-3G (Homo sapiens, UniProt Q9HC16).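 Note: Dose-response counterscreen measuring inhibition of APOBEC3G DNA deaminase activity, run while confirming APOBEC3A inhibitors.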
Test [5] addresses T3, Carboxy-terminal domain RNA polymerase II polypeptide A small phosphatase 1 (Homo sapiens, UniProt Q9GZU7).
T3 sequence (Q9GZU7 whole entry): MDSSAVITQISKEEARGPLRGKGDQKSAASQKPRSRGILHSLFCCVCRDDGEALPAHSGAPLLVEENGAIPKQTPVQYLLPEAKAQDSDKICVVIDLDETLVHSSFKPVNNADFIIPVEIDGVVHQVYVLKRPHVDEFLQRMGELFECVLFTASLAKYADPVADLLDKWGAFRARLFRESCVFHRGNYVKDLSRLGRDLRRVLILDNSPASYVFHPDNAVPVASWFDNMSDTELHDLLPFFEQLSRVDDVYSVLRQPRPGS
The experiment in a line: CTDSP1 inhibitors, concentration-response, biochemical, absorbance readout, ultra-high-throughput screen actives (AID 540297).

Test [6] concerns the target T4, Bcl-2-related protein A1 (Mus musculus, UniProt Q07440).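 Note: confirmatory dose–response counterscreen on Bfl-1, used to check hits from a UBC13 polyubiquitin inhibitor campaign.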
T4 sequence (Q07440 whole entry): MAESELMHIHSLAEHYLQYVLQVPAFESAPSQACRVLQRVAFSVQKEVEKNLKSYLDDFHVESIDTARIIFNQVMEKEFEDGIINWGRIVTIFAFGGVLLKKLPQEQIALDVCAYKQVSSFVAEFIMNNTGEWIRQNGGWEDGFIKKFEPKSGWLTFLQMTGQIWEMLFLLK

Test [7] addresses T5, Ubiquitin-conjugating enzyme E2 N (Homo sapiens, UniProt P61088).
T5 sequence (P61088 whole entry): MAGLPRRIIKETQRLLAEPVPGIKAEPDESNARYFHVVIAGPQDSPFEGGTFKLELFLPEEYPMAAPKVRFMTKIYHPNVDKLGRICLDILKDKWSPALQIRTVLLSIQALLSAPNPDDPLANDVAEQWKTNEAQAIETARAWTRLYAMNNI

Test [8] addresses T6, Protein RecA (Mycobacterium tuberculosis, UniProt P9WHJ3).
T6 sequence (P9WHJ3 whole entry): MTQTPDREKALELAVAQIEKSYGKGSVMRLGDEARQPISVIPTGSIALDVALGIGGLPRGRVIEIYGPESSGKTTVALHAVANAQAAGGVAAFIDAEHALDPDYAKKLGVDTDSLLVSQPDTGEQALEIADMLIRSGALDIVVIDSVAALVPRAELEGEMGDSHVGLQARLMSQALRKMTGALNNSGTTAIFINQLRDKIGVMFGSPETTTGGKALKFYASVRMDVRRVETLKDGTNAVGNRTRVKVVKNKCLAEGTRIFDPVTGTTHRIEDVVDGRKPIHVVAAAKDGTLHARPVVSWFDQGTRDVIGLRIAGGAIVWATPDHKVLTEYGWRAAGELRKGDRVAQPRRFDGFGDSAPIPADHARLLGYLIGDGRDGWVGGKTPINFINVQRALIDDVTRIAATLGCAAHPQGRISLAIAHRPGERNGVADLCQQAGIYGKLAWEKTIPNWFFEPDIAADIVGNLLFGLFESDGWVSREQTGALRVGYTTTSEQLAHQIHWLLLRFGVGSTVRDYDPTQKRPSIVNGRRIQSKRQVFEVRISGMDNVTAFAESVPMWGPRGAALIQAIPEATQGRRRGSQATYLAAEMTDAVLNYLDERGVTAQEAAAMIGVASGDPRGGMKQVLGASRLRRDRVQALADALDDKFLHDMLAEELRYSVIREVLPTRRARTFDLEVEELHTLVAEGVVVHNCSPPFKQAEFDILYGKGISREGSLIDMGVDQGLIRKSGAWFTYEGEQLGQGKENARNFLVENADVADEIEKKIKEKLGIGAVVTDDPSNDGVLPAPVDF
The experiment in a line: Fluorescence Cell-Free Homogeneous Dose Retest to Identify Inhibitors of RecA-Intein Splicing Activity. [Related pubchem assays (depositor defined):AID2097, AID2223, AID489010, AID492950].

Test [9] deals with T7, Replicative DNA helicase DnaB (Mycobacterium tuberculosis, UniProt P9WMR3).
T7 sequence (P9WMR3 whole entry): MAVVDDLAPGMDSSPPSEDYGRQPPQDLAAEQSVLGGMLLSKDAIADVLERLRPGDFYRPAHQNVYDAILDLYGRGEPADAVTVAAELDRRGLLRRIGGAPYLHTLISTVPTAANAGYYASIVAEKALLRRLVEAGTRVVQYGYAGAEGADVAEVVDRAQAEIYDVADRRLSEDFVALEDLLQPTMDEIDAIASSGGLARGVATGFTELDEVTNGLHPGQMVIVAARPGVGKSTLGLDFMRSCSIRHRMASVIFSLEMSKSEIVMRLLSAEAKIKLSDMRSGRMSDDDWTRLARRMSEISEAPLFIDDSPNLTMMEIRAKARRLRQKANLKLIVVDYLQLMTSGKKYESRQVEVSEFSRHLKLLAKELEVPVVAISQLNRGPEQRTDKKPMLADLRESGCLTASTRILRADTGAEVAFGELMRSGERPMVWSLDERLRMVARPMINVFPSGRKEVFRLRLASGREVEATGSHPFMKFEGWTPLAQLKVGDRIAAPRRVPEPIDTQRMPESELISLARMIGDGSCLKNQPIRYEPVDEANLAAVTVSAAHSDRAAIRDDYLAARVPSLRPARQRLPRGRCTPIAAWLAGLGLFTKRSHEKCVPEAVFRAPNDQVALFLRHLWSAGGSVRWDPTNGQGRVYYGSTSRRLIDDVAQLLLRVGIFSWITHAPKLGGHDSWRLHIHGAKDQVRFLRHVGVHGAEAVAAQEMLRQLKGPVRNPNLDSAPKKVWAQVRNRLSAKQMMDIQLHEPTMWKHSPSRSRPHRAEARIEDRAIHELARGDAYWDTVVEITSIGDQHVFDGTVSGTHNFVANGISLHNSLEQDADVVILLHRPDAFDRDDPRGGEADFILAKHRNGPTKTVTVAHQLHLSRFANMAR
Nature of the test: DnaB intein splicing inhibitors, dose response, biochemical, cell-free fluorescence (AID 449749).

In test [10] the target is T5, Ubiquitin-conjugating enzyme E2 N. This is another data set of the same source.

Sequence of DNA dC->dU-editing enzyme APOBEC-3A (P31941 whole entry): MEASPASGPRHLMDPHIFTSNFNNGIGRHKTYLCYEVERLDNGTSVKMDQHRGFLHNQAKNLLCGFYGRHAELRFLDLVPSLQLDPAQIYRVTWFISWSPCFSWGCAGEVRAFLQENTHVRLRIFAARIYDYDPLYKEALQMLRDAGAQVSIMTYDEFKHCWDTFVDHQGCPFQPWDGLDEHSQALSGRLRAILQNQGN
Sequence of DNA dC->dU-editing enzyme APOBEC-3G (Q9HC16 whole entry, the tested form may be a part): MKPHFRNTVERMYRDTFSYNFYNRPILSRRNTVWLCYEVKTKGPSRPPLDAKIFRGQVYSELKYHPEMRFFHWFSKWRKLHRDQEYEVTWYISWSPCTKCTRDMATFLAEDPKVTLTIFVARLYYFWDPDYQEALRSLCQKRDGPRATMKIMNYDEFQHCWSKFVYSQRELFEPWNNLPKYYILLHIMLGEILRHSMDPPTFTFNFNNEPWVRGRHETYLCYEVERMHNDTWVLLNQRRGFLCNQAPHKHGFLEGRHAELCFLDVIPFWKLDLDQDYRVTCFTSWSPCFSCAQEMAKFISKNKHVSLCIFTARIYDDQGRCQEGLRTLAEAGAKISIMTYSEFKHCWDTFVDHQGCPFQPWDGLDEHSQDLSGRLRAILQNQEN

On to `COc1ccccc1/N=C/c1nc(-c2ccccc2)oc1OC(C)=O`, for which the half-maximal inhibitory concentration (IC50) (in general, the concentration needed to halve the response being measured) in [1] is 48.8 µM (active).

Turning to `C=CCNc1ncnc2c1[nH]c1ccc(C)cc12`, the IC50 in [1] is > 50 µM (inactive).

Take `Fc1ccc(N=C(S)Nc2ccc(F)c(Cl)c2)cc1Cl`: the IC50 in [2] was 7.94 µM (active).

With `Cc1cc(=O)oc2c1c(C)nn2-c1nn[nH]n1`, the IC50 in test [3] is 1.76 µM (active); in [4], 4.36 µM (active).

Take `CCC1=C/C(=C\c2ccc3c(c2)OCO3)C(=O)S1`: in test [1], the IC50 was > 50 µM (inactive).

For the molecule `CCCc1nc(-c2cc3cc(C)ccc3[nH]c2=O)no1`, the 50% inhibitory concentration (IC50) in test [3] was 3.04 µM (active); in [5], 12.8 µM (active); in test [4], 2.41 µM (active).

With `CCOC(=O)N1CCN(C(=O)C2CCCN(c3ncnc4c3nc3n4CCCCC3)C2)CC1` (stereo not drawn), the 50% inhibitory concentration (IC50) in test [2] was 12.9 µM (active).

For the molecule `CC12CCC(C[N+](C)(C)C1)C2(C)C` (stereo not drawn), the results for the IC50 in test [3], in test [5] and in test [4] were 2.69 µM (active), 5.62 µM (active) and 4.71 µM (active), respectively.

Turning to `O=C(CSCc1ccc([N+](=O)[O-])cc1)N/N=C/c1cccnc1`, the IC50 in [6] is > 20 µM (inactive); in [7], 8.26 µM (active); in [10] it was 10.9 µM (active). Further, the EC50 – broadly, the concentration needed to bring the measured effect to its halfway point – in test [8] was > 380 µM (inactive). Moreover, the AC50 – broadly, the midpoint of the concentration-response curve, whichever way the signal moves – in test [9] was > 380 µM (inactive).
